Measurements published in paper PMC3127977, “No relevant cardiac, pharmacokinetic or safety interactions between roflumilast and inhaled formoterol in healthy subjects: an open-label, randomised, actively controlled study” (BMC Clinical Pharmacology, 2011).

How the values were obtained:
[1] = Serum potassium concentration on profiling days; settings: Regimen B, Day 8
From the text: (§2) During the main profiling days, blood was sampled at each ZCG time point for the determination of serum glucose and potassium concentrations.

[2] = Steady-state plasma pharmacokinetics (HPLC-MS/MS) in healthy men; oral roflumilast 500 μg once daily, inhaled formoterol 24 μg twice daily; settings: for Cmax: Cmax (formoterol)
Method: (§1) For Regimen A, subjects received 500 μg oral roflumilast once daily (daily dose: one tablet of roflumilast 500 μg) from the morning of Day 2 to the morning of Day 18. […] For Regimen B, subjects received 24 μg formoterol for oral inhalation delivered by a DPI device (Foradil® P) twice daily, once in the morning and once in the evening from the morning of Day 2 to the evening of Day 18.
Pre-dose blood samples for determination of trough levels were taken on Days 9 and 10 for Regimen A (morning only), and on Days 6 and 7 (morning and evening) for Regimen B. Blood samples (4.5 mL) were collected in heparinised tubes and plasma was obtained by centrifugation at 1550 g for 15 minutes. Plasma samples were stored at -20°C or below for roflumilast, and at -70°C for formoterol. Plasma concentrations of roflumilast and roflumilast N-oxide were determined using high-performance liquid chromatography coupled with tandem mass spectrometry (HPLC-MS/MS). […] Roflumilast and roflumilast N-oxide standard curves were valid up to 20 ng/mL and 40 ng/mL, respectively. Determination of roflumilast and roflumilast N-oxide was performed at Altana Pharma AG, Konstanz, Germany (Nycomed GmbH). Plasma concentrations of formoterol were determined using HPLC-MS/MS. The LLOQ in plasma was 0.4 pg/mL using a sample volume of 1.0 mL. […] Determination of formoterol was performed at pharm-analyt Labor GmbH, Baden, Austria, under the supervision of Altana Pharma AG(Nycomed GmbH).
For roflumilast, roflumilast N-oxide and formoterol, the maximum plasma concentration (Cmax) was derived directly from the plasma concentrations. The AUC from time zero to the time of the last quantifiable concentration, which corresponded to the dosing interval of each analyte (AUC0-τ), was estimated using the linear trapezoidal method. Apparent clearance at steady state (CL/F; calculated by dose/AUCτ) was reported for roflumilast only. […] The calculation of tPDE4i was based on the equation described in Lahu et al..

healthy subjects [3] = assay: Digital 12-lead electrocardiography (HR, QT, QTc); assay type: in vivo, human
Method: Digital 12-lead ECGs were recorded immediately after each ZCG recording. Tracings were analysed off-study by regimen-blinded qualified analysts, using previously reported methodology. For each time point, three cycles were measured with regard to the RR, PQ and QT-intervals [ms]. The means of the three measurements were used for the calculation of HR and HR-corrected QTc intervals, according to Bazett's equation (QTcB = QT/RR^1/2) and Fridericia's equation (QTcF = QT/RR^1/3).

[4] = test system: human parenchymal and bronchial explants; settings: in vitro; cited from earlier work
healthy subjects [5] = assay: Transthoracic impedance cardiography (ZCG) and systolic time intervals in healthy men; oral roflumilast 500 μg once daily, inhaled formoterol 24 μg twice daily; settings: Regimen B
Method: as §1
Cardiovascular effects were evaluated non-invasively by means of ECGs (cardiac rhythm, intra-cardiac conduction and ventricular repolarisation), oscillometric blood pressure and transthoracic impedance cardiography (ZCG; systolic time intervals, contractility indices and estimates of stroke volume and cardiac output). Cardiovascular assessments (oscillometric blood pressure, pulse rate, 12-lead ECG, and three-lead ZCG) were recorded before dosing and at 10, 20, 40 and 60 minutes, and at 2, 3, 4, 5, 6, 7 and 8 hours after morning dosing. […] All cardiovascular measurements were carried out after the subjects had been recumbent for at least 10 minutes; they generally stayed in bed from 1 hour before until 8 hours after morning dosing.
Systolic time intervals (STIs) and ZCG estimates of the systolic cardiac pump performance were derived from the simultaneous registration of a one-lead ECG, a phonocardiogram (PCG), and the rate of change of the transthoracic impedance (dZ/dt) to an AC current applied through the thoracic cage (CARDIODYNAGRAPH; Diefenbach GmbH, Wiesbaden, Germany). Tracings were captured and stored digitally during the study and subsequently analysed after the study by displaying the analogue ECG, PCG and ZCG signals on a computer screen. The relevant signal amplitudes and time intervals were delineated manually by operator-steered cursors; measurements were made for at least 10 artefact-free consecutive cardiac cycles. From these tracings, the following variables were derived by direct measurement: RR interval (ms), total electromechanic systole (QS2 [ms]), ventricular ejection time (VET [ms]), baseline transthoracic impedance (Z0 [Ω]), and maximum negative velocity of transthoracic impedance changes during the cardiac cycle (dZ/dtmax [Ω/s]). These variables were analysed for the 10 cycles and their means were used in the calculations of the following variables: heart rate (HR [bpm]), pre-ejection period (PEP [ms] = QS2 - VET), HR-corrected STIs (STIc and STIi according to Weissler et al.), ZCG estimates of stroke volume (SV [mL] according to Kubicek's equation [37] using the equation of Geddes and Sadler for the specific resistance of blood), cardiac output (CO [mL/min]), and total peripheral resistance (TPR [dyn.s.cm^-5]). For the latter variable, the mean blood pressure (MBP [mmHg]) was used as calculated according to Wezler and Böger from the systolic blood pressure (mmHg) and the diastolic blood pressure (mmHg).
ZCG analysis was carried out by a single analyst who was blinded with regard to subject, study regimen, profiling day within regimen, and time during the day.

[6] = cited from earlier work
[7] = Serum glucose concentration on profiling days; settings: Regimen B, throughout Day 8 compared with Day 1
From the text: as §2

healthy subjects [8] = assay: Adverse event monitoring; assay type: in vivo, human
From the text: Blood and urine samples for conventional clinical laboratory safety tests were obtained at the screening visit, in the morning of each main profiling day, and on Day 19. Adverse events (AEs) were monitored throughout the study.

[9] = cited from earlier work; remark: listed apart in the source

SMILES: COc1ccc(CC(C)NCC(O)c2ccc(O)c(NC=O)c2)cc1 (centres unmarked) [Formoterol]
- pre-dose serum potassium concentration [1]: 4.38 mmol/L
- changes in steady-state pharmacokinetics when the other drug was added ([2]; formoterol added to roflumilast, or roflumilast added to formoterol): no changes
- Cmax ([2]; male, human, in vivo, 24 μg, steady state, Regimen B Day 8 (formoterol alone), geometric mean (68% range)): 16.7 ng/mL
- AUC ([2]; male, human, in vivo, AUCτ (formoterol), steady state, Regimen A Day 18 (roflumilast plus formoterol), geometric mean (68% range)): 93.2 ng·h/mL
- Cmax ([2]; male, human, in vivo, steady state, Regimen A Day 18 (roflumilast plus formoterol), geometric mean (68% range)): 18.7 ng/mL
- Cmax ([2]; male, human, in vivo, steady state, Regimen B Day 18 (formoterol plus roflumilast), geometric mean (68% range)): 17.2 ng/mL
- Ctrough (formoterol) ([2]; steady state, Regimen A Day 18 (roflumilast plus formoterol), geometric mean (68% range)): 4.23 (2.43-7.38) μg/L
- Ctrough (formoterol) ([2]; steady state, Regimen B Day 8 (formoterol alone), geometric mean (68% range)): 4.12 (3.05-5.57) μg/L
- Ctrough (formoterol) ([2]; steady state, Regimen B Day 18 (formoterol plus roflumilast), geometric mean (68% range)): 3.94 (3.13-4.96) μg/L
- HR (ECG) (healthy subjects [3]; 12-lead ECG): slight increase
- QTc values, uncorrected or corrected using Bazett's or Fridericia's formula (healthy subjects [3]; 12-lead ECG): no clinically relevant changes
- duration of the QT interval (healthy subjects [3]; 12-lead ECG): decrease
- QT/QTc intervals (healthy subjects [3]; all subjects, all regimens): below 450 ms
- inhibitory effect of roflumilast on cytokine and tumour necrosis factor-α production [4]: increased
- CO, Day 1-matched post-dose maximum dmax (δ), median (healthy subjects [5]; Day 8 (F)): 2.9 L/min
- CO, Day 1-matched post-dose minimum dmin (δ), median (healthy subjects [5]; Day 8 (F)): -0.6 L/min
- CO, untransformed post-dose maximum dmax (U), median (healthy subjects [5]; Day 8 (F)): 11.8 L/min
- CO, untransformed post-dose minimum dmin (U), median (healthy subjects [5]; Day 8 (F)): 8.2 L/min
- CO, untransformed pre-dose morning value, median (healthy subjects [5]; Day 8 (F)): 9.7 L/min
- HR, Day 1-matched post-dose maximum dmax (δ), median (healthy subjects [5]; Day 8 (F)): 16 bpm
- HR, Day 1-matched post-dose minimum dmin (δ), median (healthy subjects [5]; Day 8 (F)): -2 bpm
- HR, untransformed post-dose maximum dmax (U), median (healthy subjects [5]; Day 8 (F)): 72 bpm
- HR, untransformed post-dose minimum dmin (U), median (healthy subjects [5]; Day 8 (F)): 62 bpm
- HR, untransformed pre-dose morning value, median (healthy subjects [5]; Day 8 (F)): 66 bpm
- PEP, Day 1-matched post-dose maximum dmax (δ), median (healthy subjects [5]; Day 8 (F)): 25 ms
- PEP, Day 1-matched post-dose minimum dmin (δ), median (healthy subjects [5]; Day 8 (F)): -26 ms
- PEP, untransformed post-dose maximum dmax (U), median (healthy subjects [5]; Day 8 (F)): 117 ms
- PEP, untransformed post-dose minimum dmin (U), median (healthy subjects [5]; Day 8 (F)): 84 ms
- PEP, untransformed pre-dose morning value, median (healthy subjects [5]; Day 8 (F)): 97 ms
- QS2, Day 1-matched post-dose maximum dmax (δ), median (healthy subjects [5]; Day 8 (F)): 13 ms
- QS2, Day 1-matched post-dose minimum dmin (δ), median (healthy subjects [5]; Day 8 (F)): -47 ms
- QS2, untransformed post-dose maximum dmax (U), median (healthy subjects [5]; Day 8 (F)): 440 ms
- QS2, untransformed post-dose minimum dmin (U), median (healthy subjects [5]; Day 8 (F)): 408 ms
- QS2, untransformed pre-dose morning value, median (healthy subjects [5]; Day 8 (F)): 431 ms
- TPR, Day 1-matched post-dose maximum dmax (δ), median (healthy subjects [5]; Day 8 (F)): 61 dyn.s.cm^-5
- TPR, Day 1-matched post-dose minimum dmin (δ), median (healthy subjects [5]; Day 8 (F)): -221 dyn.s.cm^-5
- TPR, untransformed post-dose maximum dmax (U), median (healthy subjects [5]; Day 8 (F)): 882 dyn.s.cm^-5
- TPR, untransformed post-dose minimum dmin (U), median (healthy subjects [5]; Day 8 (F)): 561 dyn.s.cm^-5
- TPR, untransformed pre-dose morning value, median (healthy subjects [5]; Day 8 (F)): 668 dyn.s.cm^-5
- dZ/dt, Day 1-matched post-dose maximum dmax (δ), median (healthy subjects [5]; Day 8 (F)): 0.32 Ω/s
- dZ/dt, Day 1-matched post-dose minimum dmin (δ), median (healthy subjects [5]; Day 8 (F)): -0.29 Ω/s
- dZ/dt, untransformed post-dose maximum dmax (U), median (healthy subjects [5]; Day 8 (F)): 2.10 Ω/s
- dZ/dt, untransformed post-dose minimum dmin (U), median (healthy subjects [5]; Day 8 (F)): 1.64 Ω/s
- dZ/dt, untransformed pre-dose morning value, median (healthy subjects [5]; Day 8 (F)): 1.94 Ω/s
- CO, dmax (U), point estimate (95% CI) of difference between days (healthy subjects [5]; Day 8-Day 1): 1.7 (0.6 to 2.6) L/min
- CO, dmin (U), point estimate (95% CI) of difference between days (healthy subjects [5]; Day 8-Day 1): 0.5 (-0.5 to 1.4) L/min
- CO, untransformed pre-dose morning value, point estimate (95% CI) of difference between days (healthy subjects [5]; Day 8-Day 1): 0.7 (-0.9 to 2.0) L/min
- HR, dmax (U), point estimate (95% CI) of difference between days (healthy subjects [5]; Day 8-Day 1): 9 (5 to 11) bpm
- HR, dmin (U), point estimate (95% CI) of difference between days (healthy subjects [5]; Day 8-Day 1): 7 (3 to 10) bpm
- HR, untransformed pre-dose morning value, point estimate (95% CI) of difference between days (healthy subjects [5]; Day 8-Day 1): 5 (2 to 9) bpm
- PEP, dmax (U), point estimate (95% CI) of difference between days (healthy subjects [5]; Day 8-Day 1): -4 (-14 to 2) ms
- PEP, dmin (U), point estimate (95% CI) of difference between days (healthy subjects [5]; Day 8-Day 1): 0 (-7 to 6) ms
- PEP, untransformed pre-dose morning value, point estimate (95% CI) of difference between days (healthy subjects [5]; Day 8-Day 1): -7 (-22 to 7) ms
- QS2, dmax (U), point estimate (95% CI) of difference between days (healthy subjects [5]; Day 8-Day 1): -14 (-27 to 4) ms
- QS2, dmin (U), point estimate (95% CI) of difference between days (healthy subjects [5]; Day 8-Day 1): -13 (-22 to -3) ms
- QS2, untransformed pre-dose morning value, point estimate (95% CI) of difference between days (healthy subjects [5]; Day 8-Day 1): -4 (-18 to 9) ms
- TPR, dmax (U), point estimate (95% CI) of difference between days (healthy subjects [5]; Day 8-Day 1): -49 (-160 to 80) dyn.s.cm^-5
- TPR, dmin (U), point estimate (95% CI) of difference between days (healthy subjects [5]; Day 8-Day 1): -96 (-188 to -24) dyn.s.cm^-5
- TPR, untransformed pre-dose morning value, point estimate (95% CI) of difference between days (healthy subjects [5]; Day 8-Day 1): -18 (-198 to 70) dyn.s.cm^-5
- dZ/dt, dmax (U), point estimate (95% CI) of difference between days (healthy subjects [5]; Day 8-Day 1): 0.01 (-0.15 to 0.21) Ω/s
- dZ/dt, dmin (U), point estimate (95% CI) of difference between days (healthy subjects [5]; Day 8-Day 1): 0.03 (-0.13 to 0.17) Ω/s
- dZ/dt, untransformed pre-dose morning value, point estimate (95% CI) of difference between days (healthy subjects [5]; Day 8-Day 1): 0.06 (-0.07 to 0.19) Ω/s
- drug-drug interaction with roflumilast ([6]; orally co-administered formoterol, Phase I study, ref unpublished data, Nycomed GmbH, 2002): no apparent drug-drug interaction
- post-dose serum glucose [7]: slight post-dose increase
- number of AEs (healthy subjects [8]; Regimen B, Day 2 to Day 8): no AEs were reported
- tremor (healthy subjects [8]; administered alone (Regimens A and B respectively)): not observed

SMILES: O=C(Nc1c(Cl)c[n+]([O-])cc1Cl)c1ccc(OC(F)F)c(OCC2CC2)c1 [Roflumilast N-oxide]
- changes in steady-state pharmacokinetics when the other drug was added ([2]; in vivo): no relevant changes
- AUC greater than that of roflumilast [9]: 10 fold
- median effective plasma half-life ([9]; repeated dose): 30 h
- median time to maximum plasma concentration (tmax) ([9]; repeated dose): 8 h

SMILES: CCCC1O[C@@H]2C[C@H]3[C@@H]4CCC5=CC(=O)C=C[C@]5(C)[C@H]4[C@@H](O)C[C@]3(C)[C@]2(C(=O)CO)O1 (some centres unmarked) [budesonide]
- pharmacokinetic interaction on co-administration with roflumilast ([6]; healthy volunteers): no relevant pharmacokinetic interactions
